By IC50 is commonly meant the concentration that gives 50% inhibition. Broadly, the solubility is the concentration that dissolves in the medium under given conditions.

Values after ≈ are worked out from the molar mass of the structure shown.

Series [1] is described as follows: Chemical stability of amorphous and crystalline example No. 1 (solid state). The class given is physicochemical. The conditions noted are these: for Purity: 1 week; for Initial Purity: before exposure.
Series [2] is described as follows: Blood levels and pharmacokinetics after oral administration of compound of example No. 1. The format is in vivo, Beagle dogs. The conditions noted are these: example 3 main component in blood after around an hour. The method, then:
A single dose of the compound of example 1 (3.0 mg/kg) was administered p.o. to 3 male Beagle dogs. Compound 1 was dosed as an aqueous suspension of the crystalline monohydrate form in Methylcellulose (0.5%): Tween 80 (1%) (90:10). Blood was taken in regular intervals by venipuncture, and the samples were analyzed for a period of up to 24 hours. The compounds of the examples 1, 2, and 3 were quantitatively assessed over time, and the results are tabulated below:
Key pharmacokinetic parameters (mean values±standard deviations (n=3) for 1, 2 and 3 after oral dosing of example No. 1.

Series [3] relates to Bone marrow cells from CBA mice. Description: Bone marrow cell proliferation (BM) assay. The format is cell-based. The conditions noted are these: Mus musculus, 3H-thymidine incorporation, four days incubation. The method, then: Bone marrow cells from CBA mice (2.5×10^4 cells per well in flat bottom tissue culture microtiter plates) were incubated in 100 μL RPMI medium containing 10% FCS, 100 U/mL penicillin, 100 μg/mL streptomycin (Gibco BRL, Basel Switzerland), 50 μM 2-mercaptoethanol (Fluka, Buchs, Switzerland), WEHI-3 conditioned medium (7.5% v/v) and L929 conditioned medium (3% v/v) as a source of growth factors and serially diluted compounds. Seven three-fold dilution steps in duplicates per test compounds were performed. After four days of incubation 1 μCi ^3H-thymidine was added. Cells were harvested after an additional five-hour incubation period, and incorporated ^3H-thymidine was determined according to standard procedures. Conditioned media were prepared as follows. WEHI-3 cells (ATCC TIB68) and L929 cells (ATCC CCL 1) were grown in RPMI medium until confluence for 4 days and one week, respectively. Cells were harvested, resuspended in the same culture flasks in medium C containing 1% FCS (Schreier and Tess 1981) for WEHI-3 cells and RPMI medium for L929 cells and incubated for 2 days (WEHI-3) or one week (L929). The supernatant was collected, filtered through 0.2 μm and stored in aliquots at −80° C. Cultures without test compounds and without WEHI-3 and L929 supernatants were used as low control values. Low control values were subtracted from all values. […]
On the technique in general: Dividing cells build labelled thymidine or BrdU into new DNA.

Series [4] can be described thus: Chemical stability of the trihydrate of example 1. The class given is physicochemical.
Series [5] is described as follows: Solubility in simulated gastric and intestinal fluids. The format is physicochemical. The conditions noted are these: for Final pH: solubility test. The text has this:
Solubility of compound Example No. 1 in simulated gastric and in simulated intestinal fluids at room temperature
Solubility of compound Example No. 3 (free form/acetate salt form) in simulated gastric fluids: […]

A short description of series [6]: Physical stability: equilibration of suspension, XRPD of isolated solid. The format is physicochemical. The conditions noted are these: based upon the equilibration experiments. As to the method: Samples of example 1 free base which are a mixture of monohydrate and trihydrate were suspended in an organic solvent water mixture of water and equilibrated for about 4 days at 25°. […] After equilibration the suspension was filtered and the solid material isolated and analysed by XRPD.

Regarding `Cc1cccc2c(C3=C(c4nc(N5CCNC6(CC6)C5)cc5ccccc45)C(=O)N(COP(=O)(O)O)C3=O)c[nH]c12` [Example 1, Phosphoric acid mono-[3-[3-(4,7-diaza-spiro[2.5]oct-7-yl)-isoquinolin-1-yl]-4-(7-methyl-1H-indol-3-yl)-2,5-dioxo-2,5-dihydro-pyrrol-1-ylmethyl]ester], the Purity in series [1] (Amorphous, 50 ° C.) was 95.8%; in series [1] (Amorphous, 80 ° C.), 89.7%; in series [1] (Crystalline monohydrate, 50 ° C.) it was 100%; in series [1] (Crystalline monohydrate, 80 ° C.) it was 100%. For the same compound, the entries for the “Initial Purity” value in series [1] (Amorphous) and in series [1] (Crystalline monohydrate) were 98.5% and 100%, respectively. Besides, the “conversion of prodrug into parent compound in blood” value in series [2] is “effective and favorable conversion into a parent compound”. For the same compound, inhibition in series [3] was half-maximal at 6740 ± 1120 nM (IC50). The “Purity of example 1 in %” value is 95.57% in series [4] (2 weeks 50° C.), 96.20% in series [4] (2 weeks 50° C./75% RH) and 98.06% in series [4] (initial). The results for the “Sum of related. Substances in area %” value in series [4] (2 weeks 50° C.), in series [4] (2 weeks 50° C./75% RH) and in series [4] (initial) were 4.52 area %, 3.66 area % and 1.64 area %, respectively. The solubility in series [5] (Fasted state simulated intestinal fluid (FaSSIF) pH 6.5, room temperature) was 100 µg/mL (≈ 174 µM); in series [5] (Fed state simulated intestinal fluid (FeSSIF) pH 5.8, room temperature) it was 130 µg/mL (≈ 227 µM); in series [5] (Simulated gastric fluid (SGF) pH 2, room temperature), 40 µg/mL (≈ 69.7 µM). Moreover, the “Final pH” value is 6.59 in series [5] (FaSSIF pH 6.5), 6.05 in series [5] (FeSSIF pH 5.8) and 2.22 in series [5] (SGF pH 2).
Turning to `Cc1cccc2c(C3=C(c4nc(N5CCNC6(CC6)C5)cc5ccccc45)C(=O)NC3=O)c[nH]c12` [Example 3, 3-[3-(4,7-diaza-spiro[2.5]oct-7-yl)-isoquinolin-1-yl]-4-(7-methyl-1H-indol-3-yl)-pyrrole-2,5-dione], the IC50 in series [3] was 1670 ± 256 nM. The “Final pH” value in series [5] (Acetate Salt, FaSSIF pH 6.5) is 3.97; in series [5] (Acetate Salt, FeSSIF pH 5.8), 6.5; in series [5] (Acetate Salt, SGF pH 2) it was 5.45. Further, the solubility in series [5] (fasted state simulated intestinal fluid (FaSSIF), Acetate Salt, FaSSIF pH 6.5) is 50 µg/mL; in series [5] (fed state simulated intestinal fluid (FeSSIF), Acetate Salt, FeSSIF pH 5.8) it was 550 µg/mL; in series [5] (simulated gastric fluid (SGF), simulated gastric fluid, Acetate Salt, SGF pH 2), 150 µg/mL.
With `Cc1cccc2c(C3=C(c4nc(N5CCNC6(CC6)C5)cc5ccccc45)C(=O)N(COP(=O)(O)O)C3=O)c[nH]c12.O.O.O` [trihydrate of example 1, phosphoric acid mono-[3-[3-(4,7-diaza-spiro[2.5]oct-7-yl)-isoquinolin-1-yl]-4-(7-methyl-1H-indol-3-yl)-2,5-dioxo-2,5-dihydro-pyrrol-1-ylmethyl]ester, trihydrate], in series [6], the “relative thermodynamic stability of hydrate forms” value was “thermodynamically more stable than the monohydrate”.

These data come from US20150284364A1, “SUBSTITUTED INDOLE DERIVATIVES” (priority 2012, published 2015).
